Source: patent US11426473B2, “Nitrogen-containing compound or salt thereof, or metal complex thereof” (FUJIFILM Corporation, priority 2013, dated 2022)
Where two headings read alike, the source gives them in different places.

How the values were obtained:
[1] = system: U87MG cells subcutaneous tumor; assay: Concentration of radioactivity in tumor of labeled compounds (Test Example 4); format: in vivo, mouse; settings: tail vein, 111In 740 kBq, 64Cu and 90Y 500 kBq
Protocol: U87MG cells were subcutaneously transplanted at 1×10^7 cells/mouse to the right flank of Balb/cAJcl-nu/nu (CLEA Japan, Inc. or Japan SLC, Inc., 6 to 9 weeks old). After 2 to 3 weeks, the mice were divided into groups each involving 3 individuals per point in time when their tumors became 200 to 500 mm^3. The ^111In-labeled compound (740 kBq) was administered to the tail veins of the mice.
After a given time, the animals were sacrificed to extract their tumors. The weights of the tumors were measured, and the radioactivity was measured using a gamma counter to calculate the concentration of radioactivity in the tumors (% ID/g). In the same way as above, the concentration of radioactivity in the tumors (% ID/g) was calculated for the ^64Cu-labeled compound (500 kBq) and the ^90Y-labeled compound (500 kBq).

Integrin αvβ3 = biological target: T1, Integrin αvβ3 (Homo sapiens, UniProt P05106+P06756); assay: Integrin αvβ3 binding affinity test
T1 construct: purchased Chemicon International, Inc
Protocol: (§1) […] αvβ3 (Chemicon International, Inc.) was immobilized on each well of a 96-well plate (Corning Inc.). Each well was blocked with a 1% Block Ace (DS Pharma Biomedical Co., Ltd) solution and then washed with T-PBS (PBS containing 0.05% Tween 20). Evaluation compound solutions having a 2-fold concentration (10 concentrations of 3.16-fold dilutions from 0.3 μmol/L, buffer (20 mM Tris-HCl pH 7.5, 150 mM NaCl, 1 mM CaCl2, 1 mM MgCl2, and 1 mM MnCl2)) and a 4 μg/mL biotinylated vitronectin solution (vitronectin (Upstate Biotechnology Inc.) was labeled with EZ-Link Sulfo-NHS-Biotinylation Kit (Pierce/Thermo Fisher Scientific Inc.) and then concentration-adjusted) were each added at 50 μL/well, and the plate was shaken at room temperature for 2 hours. After washing with T-PBS, a 0.2 μg/mL avidin peroxidase (Pierce/Thermo Fisher Scientific Inc.) solution was added thereto, and the plate was shaken at room temperature for 1 hour. After washing with T-PBS, color was developed by an o-phenylenediamine (Sigma-Aldrich Inc.) solution (the reaction was terminated by the addition of 4 mol/L sulfuric acid), and the absorbance was measured (490 nm, Reference: 595 nm). The IC50 value was calculated using XLfit 3.0 (ID Business Solutions Ltd.). RGDfV (Bachem AG) was measured in duplicate as a QC sample for each plate.

Integrin αvβ5 = biological target: T2, Integrin αvβ5 (Homo sapiens, UniProt P06756+P18084); assay: Integrin αvβ5 binding affinity test
T2 construct: purchased Chemicon International, Inc
Protocol: as §1, with “αvβ5” for “αvβ3”, “PBST (10 mM Na2HPO4 pH 7.5, 150 mM NaCl, and 0.01%” for “T-PBS (PBS containing 0.05%”, “PBST,” for “T-PBS,”

[2] = inhibition of biotinylated vitronectin binding to immobilized αvβ3, read-out: IC50 value αv β3
[3] = inhibition of biotinylated vitronectin binding to immobilized αvβ5, read-out: IC50 value αvβ5

T2 sequence (P06756 31-889 limits assumed): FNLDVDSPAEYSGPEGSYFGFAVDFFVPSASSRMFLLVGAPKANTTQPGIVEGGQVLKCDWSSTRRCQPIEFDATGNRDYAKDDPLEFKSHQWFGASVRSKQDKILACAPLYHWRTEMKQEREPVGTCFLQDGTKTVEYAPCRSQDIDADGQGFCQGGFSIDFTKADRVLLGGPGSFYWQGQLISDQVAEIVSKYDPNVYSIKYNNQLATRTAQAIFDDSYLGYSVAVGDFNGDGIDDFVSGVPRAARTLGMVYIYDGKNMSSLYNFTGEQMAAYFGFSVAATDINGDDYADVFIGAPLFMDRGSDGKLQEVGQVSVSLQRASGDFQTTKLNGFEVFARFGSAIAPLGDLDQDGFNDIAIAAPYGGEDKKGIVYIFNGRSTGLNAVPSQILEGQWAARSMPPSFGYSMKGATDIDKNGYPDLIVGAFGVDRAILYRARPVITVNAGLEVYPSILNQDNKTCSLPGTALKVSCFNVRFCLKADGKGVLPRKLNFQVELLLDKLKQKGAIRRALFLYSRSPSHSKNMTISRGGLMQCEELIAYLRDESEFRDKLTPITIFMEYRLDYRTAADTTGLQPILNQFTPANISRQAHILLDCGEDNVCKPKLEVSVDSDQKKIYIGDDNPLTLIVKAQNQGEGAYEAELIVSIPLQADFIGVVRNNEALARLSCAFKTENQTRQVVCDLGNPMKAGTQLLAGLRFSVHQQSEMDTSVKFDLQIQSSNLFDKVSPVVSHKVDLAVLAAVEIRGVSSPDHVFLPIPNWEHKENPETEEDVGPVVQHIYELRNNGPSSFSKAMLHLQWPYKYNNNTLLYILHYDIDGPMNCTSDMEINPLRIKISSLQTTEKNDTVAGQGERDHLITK
T2 sequence (P06756 891-1048 partner limits assumed): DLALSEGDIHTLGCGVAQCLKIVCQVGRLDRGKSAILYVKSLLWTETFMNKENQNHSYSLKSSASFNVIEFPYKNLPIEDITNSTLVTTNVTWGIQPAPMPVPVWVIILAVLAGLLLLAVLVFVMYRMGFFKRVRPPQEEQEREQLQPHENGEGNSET
T2 sequence (P18084 24-799): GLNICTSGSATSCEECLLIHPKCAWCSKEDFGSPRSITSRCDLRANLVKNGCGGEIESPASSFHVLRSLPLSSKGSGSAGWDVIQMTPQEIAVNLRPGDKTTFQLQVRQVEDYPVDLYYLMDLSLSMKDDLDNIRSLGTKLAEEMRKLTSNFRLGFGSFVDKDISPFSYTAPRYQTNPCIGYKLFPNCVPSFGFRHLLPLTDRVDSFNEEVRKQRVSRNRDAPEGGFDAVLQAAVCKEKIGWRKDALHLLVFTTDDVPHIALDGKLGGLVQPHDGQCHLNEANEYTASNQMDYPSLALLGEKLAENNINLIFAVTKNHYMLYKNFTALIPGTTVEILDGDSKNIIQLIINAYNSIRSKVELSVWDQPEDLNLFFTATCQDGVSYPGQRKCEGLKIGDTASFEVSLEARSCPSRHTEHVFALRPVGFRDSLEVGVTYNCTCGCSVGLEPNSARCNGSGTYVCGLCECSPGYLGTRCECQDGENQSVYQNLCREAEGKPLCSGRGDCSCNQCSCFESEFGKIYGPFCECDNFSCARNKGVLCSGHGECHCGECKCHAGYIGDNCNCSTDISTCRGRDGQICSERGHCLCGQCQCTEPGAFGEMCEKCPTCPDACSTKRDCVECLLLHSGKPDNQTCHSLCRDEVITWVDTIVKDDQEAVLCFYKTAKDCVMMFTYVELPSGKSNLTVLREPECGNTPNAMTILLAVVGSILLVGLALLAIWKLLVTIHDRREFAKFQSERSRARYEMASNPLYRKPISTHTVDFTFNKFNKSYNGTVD
T1 sequence (P06756 31-889 limits assumed): as the sequence (P06756 31-889 limits assumed) above
T1 sequence (P06756 891-1048 partner limits assumed): as the sequence (P06756 891-1048 partner limits assumed) above
T1 sequence (P05106 27-788): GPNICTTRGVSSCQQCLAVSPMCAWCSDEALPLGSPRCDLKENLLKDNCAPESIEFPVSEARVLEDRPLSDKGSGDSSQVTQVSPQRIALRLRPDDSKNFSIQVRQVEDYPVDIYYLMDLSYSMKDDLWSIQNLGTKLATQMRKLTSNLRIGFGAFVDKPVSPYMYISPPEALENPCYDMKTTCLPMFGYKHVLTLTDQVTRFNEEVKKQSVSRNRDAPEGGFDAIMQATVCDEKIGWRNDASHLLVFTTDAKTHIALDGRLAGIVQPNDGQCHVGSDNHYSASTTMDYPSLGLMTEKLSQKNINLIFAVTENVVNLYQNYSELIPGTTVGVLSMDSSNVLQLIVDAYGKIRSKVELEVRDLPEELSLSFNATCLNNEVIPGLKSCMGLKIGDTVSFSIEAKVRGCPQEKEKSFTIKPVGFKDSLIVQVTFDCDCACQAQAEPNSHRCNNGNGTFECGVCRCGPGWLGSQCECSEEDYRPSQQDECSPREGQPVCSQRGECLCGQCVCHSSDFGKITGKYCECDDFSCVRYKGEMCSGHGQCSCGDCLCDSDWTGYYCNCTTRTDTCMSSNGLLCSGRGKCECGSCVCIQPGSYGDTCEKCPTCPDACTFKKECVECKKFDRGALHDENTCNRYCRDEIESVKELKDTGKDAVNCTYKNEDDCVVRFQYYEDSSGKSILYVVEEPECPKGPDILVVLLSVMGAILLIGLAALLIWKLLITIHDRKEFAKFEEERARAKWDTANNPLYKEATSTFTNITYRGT

Row | Structure (SMILES) | Concentration of radioactivity in tumor ([1]; 4 hours later) [% ID/g] | Concentration of radioactivity in tumor ([1]; 24 hours later) [% ID/g] | other results
1 | O=C([O-])CN1CCN(CC(=O)[O-])CCN(CC(=O)NC(CS(=O)(=O)O)C(=O)NC(CS(=O)(=O)O)C(=O)NCCNC(=O)CCCOc2cncc(C(CC(=O)O)n3ccc4cc(OCCc5ccc6c(n5)NCCC6)ccc43)c2)CCN(CC(=O)[O-])CC1.[111In+3] (mixture of isomers) [[^111In]-(I21)] | 10.60 | 9.95 | 
2 | Cc1cc(OCCCC(=O)NCCNC(=O)[C@H](CS(=O)(=O)O)NC(=O)CCC(C(=O)O)N2CCCN3CCN(CCCN(CC(=O)O)CC3)CC2)cc(C)c1S(=O)(=O)N[C@@H](CNC(=O)CCCCc1ccc2c(n1)NCCC2)C(=O)O (single isomer, unassigned) [Ab9-a] |  |  | IC50 (Integrin αvβ3; [2]): < 1 nM; IC50 (Integrin αvβ5; [3]): < 1 nM
3 | Cc1cc(OCCCC(=O)NCCNC(=O)[C@H](CS(=O)(=O)O)NC(=O)CCC(C(=O)O)N2CCCN3CCN(CCCN(CC(=O)O)CC3)CC2)cc(C)c1S(=O)(=O)N[C@@H](CNC(=O)CCCCc1ccc2c(n1)NCCC2)C(=O)O (single isomer, unassigned) [Ab9-b] |  |  | IC50 (Integrin αvβ3; [2]): < 1 nM; IC50 (Integrin αvβ5; [3]): < 1 nM
4 | Cc1cc(OCCCC(=O)NCCNC(=O)C(CS(=O)(=O)O)NC(=O)CN2CCN3CCN4CCN(CC2)CC(=O)[O][In]([O]C(=O)C3)[O]C(=O)C4)cc(C)c1S(=O)(=O)NC(CNC(=O)CCCCc1ccc2c(n1)NCCC2)C(=O)O (stereo not drawn) [AA] |  |  | IC50 (Integrin αvβ3): < 1 nM; IC50 (Integrin αvβ5): < 1 nM
5 | Cc1cc(OCCCC(=O)NCCNC(=O)[C@H](CS(=O)(=O)O)NC(=O)CC[C@H](C(=O)O)N2CCN(CC(=O)O)CCN(CC(=O)O)CC2)cc(C)c1S(=O)(=O)N[C@@H](CNC(=O)CCCCc1ccc2c(n1)NCCC2)C(=O)O [Aa7, 2,2′-(7-((R)-1-carboxy-4-(((R)-1-((2-(4-(4-(N—((S)-1-carboxy-2-(5-(5,6,7,8-tetrahydro-1,8-naphthyridin-2-yl)pentanamido)ethyl)sulfamoyl)-3,5-dimethylphenoxy)butanamido)ethyl)amino)-1-oxo-3-sulfopropan-2-yl)amino)-4-oxobutyl)-1,4,7-triazonane-1,4-diyl)diacetic acid] |  |  | IC50 (Integrin αvβ3; [2]): < 1 nM; IC50 (Integrin αvβ5; [3]): < 1 nM
6 | Cc1cc(OCCCC(=O)NCCNC(=O)COCCOCCNC(=O)CN2CCN3CCN4CCN(CC2)CC(=O)[O][In]([O]C(=O)C3)[O]C(=O)C4)cc(C)c1S(=O)(=O)NC(CNC(=O)c1ccc(CCc2ccc3c(n2)NCCC3)cc1)C(=O)O (stereo not drawn) [BB] |  |  | IC50 (Integrin αvβ3): < 1 nM; IC50 (Integrin αvβ5): < 1 nM
7 | O=C(O)C[C@H](NC(=O)c1ccc(CCc2ccc3c(n2)NCCC3)cc1)c1ccc(OCCCC(=O)NCCNC(=O)[C@H](CS(=O)(=O)O)NC(=O)[C@H](CS(=O)(=O)O)NC(=O)CN2CCN(CC(=O)O)CCN(CC(=O)O)CCN(CC(=O)O)CC2)c(F)c1 [Compound Q12, 2,2′,2″-(10-((4R,7R)-16-(4-((S)-2-carboxy-1-(4-(2-(5,6,7,8-tetrahydro-1,8-naphthyridin-2-yl)ethyl)benzamido)ethyl)-2-fluorophenoxy)-2,5,8,13-tetraoxo-4,7-bis(sulfomethyl)-3,6,9,12-tetraazahexadecyl)-1,4,7,10-tetraazacyclododecane-1,4,7-triyl)triacetic acid] |  |  | IC50 (Integrin αvβ3; [2]): < 1 nM
8 | Cc1cc(OCCCC(=O)NCCNC(=O)[C@H](CS(=O)(=O)O)NC(=O)CN2CCN(CC(=O)[O-])CCN(CC(=O)[O-])CCN(CC(=O)[O-])CC2)cc(C)c1S(=O)(=O)N[C@@H](CNC(=O)c1ccc(CCc2ccc3c(n2)NCCC3)cc1)C(=O)O.[111In+3] [[^111In]-(B2)] | 8.58 | 11.00 | 
9 | Cc1cc(OCCCC(=O)NCCNC(=O)COCCOCCNC(=O)CN2CCN(CC(=O)[O-])CCN(CC(=O)[O-])CCN(CC(=O)[O-])CC2)cc(C)c1S(=O)(=O)N[C@@H](CNC(=O)c1ccc(CCc2ccc3c(n2)NCCC3)cc1)C(=O)O.[111In+3] [[^111In]-(D3)] | 10.50 | 7.73 | 
10 | Cc1cc(OCCCC(=O)NCCNC(=O)COCCOCCNC(=O)C(CCCCN)NC(=O)CN2CCN(CC(=O)[O-])CCN(CC(=O)[O-])CCN(CC(=O)[O-])CC2)cc(C)c1S(=O)(=O)NC(CNC(=O)c1ccc(CCc2ccc3c(n2)NCCC3)cc1)C(=O)O.[111In+3] (stereo not drawn) [[^111In]-(E3)] | 11.00 | 12.40 | 
11 | Cc1cc(OCCCC(=O)NCCNC(=O)COCCOCCNC(=O)COCCOCCNC(=O)CN2CCN(CC(=O)[O-])CCN(CC(=O)[O-])CCN(CC(=O)[O-])CC2)cc(C)c1S(=O)(=O)N[C@@H](CNC(=O)c1ccc(CCc2ccc3c(n2)NCCC3)cc1)C(=O)O.[111In+3] [[^111In]-(F3)] | 11.80 | 8.41 | 
12 | Cc1cc(OCCCC(=O)NCCNC(=O)COCCOCCNC(=O)[C@H](CS(=O)(=O)O)NC(=O)CN2CCN(CC(=O)[O-])CCN(CC(=O)[O-])CCN(CC(=O)[O-])CC2)cc(C)c1S(=O)(=O)N[C@@H](CNC(=O)c1ccc(CCc2ccc3c(n2)NCCC3)cc1)C(=O)O.[111In+3] [[^111In]-(G3)] | 10.50 | 9.82 | 
13 | Cc1cc(OCCCC(=O)NCCNC(=O)C(CS(=O)(=O)O)NC(=O)CCC(NC(=O)CN2CCN(CC(=O)[O-])CCN(CC(=O)[O-])CCN(CC(=O)[O-])CC2)C(=O)NC(CS(=O)(=O)O)C(=O)NCCNC(=O)CCCOc2cc(C)c(S(=O)(=O)NC(CNC(=O)c3ccc(CCc4ccc5c(n4)NCCC5)cc3)C(=O)O)c(C)c2)cc(C)c1S(=O)(=O)NC(CNC(=O)c1ccc(CCc2ccc3c(n2)NCCC3)cc1)C(=O)O.[111In+3] (stereo not drawn) [[^111In]-(H9)] | 9.17 | 8.74 | 
14 | Cc1cc(OCCCC(=O)NCCNC(=O)[C@H](CS(=O)(=O)O)NC(=O)[C@H](CS(=O)(=O)O)NC(=O)CN2CCN(CC(=O)[O-])CCN(CC(=O)[O-])CCN(CC(=O)[O-])CC2)cc(C)c1S(=O)(=O)N[C@@H](CNC(=O)c1ccc(CCc2cccc(N)n2)cc1)C(=O)O.[111In+3] [[^111In]-(N3)] | 9.75 | 5.93 | 
15 | Cc1cc(OCCCC(=O)NCCNC(=O)C(CS(=O)(=O)O)NC(=O)C(CS(=O)(=O)O)NC(=O)CN2CCN(CC(=O)[O-])CCN(CC(=O)[O-])CCN(CC(=O)[O-])CC2)cc(C)c1S(=O)(=O)NC(CNC(=O)CCCCc1ccc2c(n1)NCCC2)C(=O)O.[111In+3] (stereo not drawn) [[^111In]-(O10)] | 12.80 | 12.40 | 
16 | Cc1cc(OCCCC(=O)NCCNC(=O)[C@H](CS(=O)(=O)O)NC(=O)[C@H](CS(=O)(=O)O)NC(=O)CN2CCN(CC(=O)[O-])CCN(CC(=O)[O-])CCN(CC(=O)[O-])CC2)cc(C)c1S(=O)(=O)N[C@@H](CNC(=O)c1ccc(CCc2ccc3c(n2)NCCC3)s1)C(=O)O.[111In+3] [[^111In]-(X9)] | 8.54 | 8.54 | 
17 | Cc1cc(OCCCC(=O)NCCNC(=O)C(CS(=O)(=O)O)NC(=O)C(CS(=O)(=O)O)NC(=O)CN2CCN(CC(=O)[O-])CCN(CC(=O)[O-])CCN(CC(=O)[O-])CC2)cc(C)c1S(=O)(=O)NC(CNC(=O)c1ccc(CCCNc2ccccn2)cc1)C(=O)O.[111In+3] (stereo not drawn) [[^111In]-(Z8)] | 6.95 | 3.34 | 
